Patent publication US11168079B2, “Alkene compounds as farnesoid x receptor modulators” (BRISTOL-MYERS SQUIBB COMPANY, priority 2017, dated 2021)

What was measured:
human FXR = target: T1, human FXR (Homo sapiens, UniProt Q96RI1); assay: transient human FXR/Gal4-luciferase reporter assay (HLE GAL-FXR); details: HEK293 cells
T1 sequence (Q96RI1 262-486 limits assumed): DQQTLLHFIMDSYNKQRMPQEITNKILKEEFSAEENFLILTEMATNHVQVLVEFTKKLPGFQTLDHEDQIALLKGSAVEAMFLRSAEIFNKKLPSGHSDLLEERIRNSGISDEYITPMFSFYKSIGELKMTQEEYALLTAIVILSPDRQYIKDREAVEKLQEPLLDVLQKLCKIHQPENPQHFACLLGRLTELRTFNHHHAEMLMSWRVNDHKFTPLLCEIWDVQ
Experimental: A Gal4-hFXR fusion construct reporter system was used as the primary assay to characterize compound activity. A construct including 5 copies of the Gal4 promoter response element upstream of a firefly luciferase reporter cDNA was stably expressed in HEK293 cells. This reporter cell line was maintained in Dulbecco's Modified Eagle's medium (DMEM; Gibco) supplemented with 1% penicillin-streptomycin (P/S) solution, 500 μg/mL Zeocin and 10% charcoal/dextran-treated fetal bovine serum (cs-FBS) at 37° C. in a humidified 5% CO2 atmosphere. Another plasmid was constructed in which the human cytomegalovirus promoter in the pcDNA3.1 vector directs the expression of the cDNA encoding a fusion protein comprised of the DNA binding domain from the Gal4 transcription factor fused to the ligand binding domain from human FXR.
For compound testing, 100 nL of the compounds (serial dilutions in DMSO) are dispensed with an Echo acoustic dispenser (Labcyte) into the wells of a Corning/Costar clear bottom 384-well white plate. The transfected cells are harvested, counted, and diluted such that 10-25,000 cells in 25 μL are plated into each well of the 384-well compound assay plate. The compound-treated cells are incubated overnight at 37° C. in a humidified 5% CO2 atmosphere. The next morning 25 μL of Steady-Glo (Promega) are added to each well of the plate, the mixture is incubated for 15 min. with shaking, and luminescence is measured on an Envision (Perkin Elmer) plate reader.

Cyp7a1 = assay: Acute mouse in vivo assay (PK/PD): Cyp7a1 gene expression in liver; details: for Cyp7a1 (fold change@ 6 h relative to Vehicle): Mouse PD
Experimental: (§1) Acute Mouse In Vivo Assay:
(§2) Male, C57BL6/NTac mice, weighing 25-28 g, are purchased from Taconic Labs (Hudson, N.Y.) and maintained on Teklad Global 18% Protein Rodent Diet (Harlan Laboratories). After 1 week acclimation, mice are sorted into groups based upon body weight. Mice are administered a single oral dose of vehicle or experimental compound. Systemic compound exposure is evaluated in plasma derived from blood collected via the submandibular vein at 1 hour post-dose, and at study termination (6 h). At study termination, the animals are euthanized and rapidly dissected. The medial lobe of the liver is divided, with one half being homogenized and analyzed for compound exposure, and the other half saved in RNAlater (Thermo-Fisher Scientific). The ileum is also dissected and preserved in RNAlater. Tissue samples in RNAlater are homogenized with MP Biomedicals' beads. RNA is extracted using the MagMax-96 Total RNA Isolation kit (Thermo-Fisher Scientific) according to the manufacturer's protocol. RNA Concentration is determined with the Nano-Drop 8000 Spectrophotometer (Thermo Fisher). […] Mouse genes analyzed include Nr0b2 (which encodes the small heterodimer partner, SHP), Abcb11 (which encodes the bile salt excretion pump, BSEP), Cyp7a1, & Cyp8b1 in liver, and Fgf15, Fabp6 (which encodes ileal bile acid binding protein, I-BABP), Slc51a (which encodes organic solute transporter alpha subunit, OSTA), and Slc51 b (which encodes organic solute transporter beta subunit, OSTB) in the ileum. The statistical significant changes in FGF15 gene expression are expressed as fold increase and CYP7A1 expression as a percent reduction relative to vehicle control. […]
(§3) Male, C57BL6/NTac mice, weighing 25-28 g, are purchased from Taconic Labs (Hudson, N.Y.) and maintained on Teklad Global 18% Protein Rodent Diet (Harlan Laboratories). […] Systemic compound exposure is evaluated in plasma derived from blood collected via the submandibular vein at 1 hour post-dose, and at study termination (6 h). […] RNA Concentration is determined with the Nano-Drop 8000 Spectrophotometer (Thermo Fisher). […]

Fgf15 = assay: Acute mouse in vivo assay (PK/PD): Fgf15 gene expression in ileum; details: for Fgf15 (fold change@ 6 h relative to Vehicle): Mouse PD
Experimental: as §1, §2, §3

[1] = FXR EC50 (nM), Gal4-hFXR fusion reporter, Table 1
[2] = HLE GAL-FXR EC50, Gal4-hFXR fusion reporter

| Structure (SMILES) | EC50 (human FXR; [1]) [nM] | other results |
| --- | --- | --- |
| O=C(O)c1ncc(N2CCC(/C=C/c3c(-c4c(Cl)cccc4Cl)noc3C3CC3)CC2)cn1 [Example 27] | 2330 | Cyp7a1 (fold change@ 6 h relative to Vehicle) (Cyp7a1; dose 30 mg/kg): 0.10; Fgf15 (fold change@ 6 h relative to Vehicle) (Fgf15; dose 30 mg/kg): 2.8 |
| O=C(O)c1cc2ccc(N3CCC(/C=C/c4c(-c5c(Cl)cncc5Cl)noc4C4CC4)CC3)cc2cn1 [Example 101] | 47 | Cyp7a1 (fold change@ 6 h relative to Vehicle) (Cyp7a1; dose 3 mg/kg): 0.06; Fgf15 (fold change@ 6 h relative to Vehicle) (Fgf15; dose 3 mg/kg): 21 |
| O=C(O)c1cc(F)c2nc(N3CCC(/C=C/c4c(-c5c(Cl)cccc5Cl)noc4C4CC4)CC3)sc2c1 [Example 14] | – | Mouse in vivo Cyp7a1 (Cyp7a1; 30 mg/kg, @ 6 h, single oral dose, percent reduction relative to vehicle control): −96%; Mouse in vivo FgF15 (Fgf15; 30 mg/kg, @ 6 h, single oral dose, fold increase relative to vehicle control): 10 x |
| COc1cc(C(=O)O)nc2ccc(N3CC4C(/C=C/c5c(-c6c(Cl)cncc6Cl)noc5C5CC5)C4C3)cc12 (stereo not drawn) [Example 80] | 38 | – |
| O=C(O)c1ccc(N2CC3C(/C=C/c4c(-c5c(Cl)cccc5Cl)noc4C4CC4)C3C2)cc1 (stereo not drawn) [Example 47, (E)-4-(6-(2-(5-cyclopropyl-3-(2,6-dichlorophenyl)isoxazol-4-yl)vinyl)-3-azabicyclo[3.1.0]hexan-3-yl)benzoic acid] | 40 | – |
| Cn1c(N2CCC(/C=C/c3c(-c4c(Cl)cccc4Cl)noc3C3CC3)CC2)nc2cc(C(=O)O)ccc21 [Example 28] | 500 | – |
| O=C(O)c1cc(OC2CC(F)(F)C2)c2cc(N3CC(/C=C/c4c(-c5ccccc5C(F)(F)F)noc4C4CC4)C3)ccc2n1 [Example 152] | 228 | – |
| O=C(O)c1cc(OC(F)F)c2cc(N3CCC(/C=C/c4c(-c5c(Cl)cncc5Cl)noc4C4CC4)CC3)ccc2n1 [Example 92] | 3 | – |
| O=C(O)c1cc(F)c2nc(N3CCC(/C=C/c4c(C5CC5)nnn4-c4c(Cl)cccc4Cl)CC3)sc2c1 [Example 10, (E)-2-(4-(2-(4-Cyclopropyl-1-(2,6-dichlorophenyl)-1H-1,2,3-triazol-5-yl)vinyl)piperidin-1-yl)-4-fluorobenzo[d]thiazole-6-carboxylic acid] | – | EC50 (human FXR; [2]): 64 nM |
| CS(=O)(=O)NC(=O)c1ccc(N2CC3C(/C=C/c4c(-c5c(Cl)cccc5Cl)noc4C4CC4)C3C2)cc1 (stereo not drawn) [Example 71, (E)-4-(6-(2-(5-Cyclopropyl-3-(2,6-dichlorophenyl)isoxazol-4-yl)vinyl)-3-azabicyclo[3.1.0]hexan-3-yl)-N-(methylsulfonyl)benzamide] | – | EC50 (human FXR; [2]): 83 nM |
| COCCOc1cc(C(=O)O)nc2ccc(N3CC4C(/C=C/c5c(-c6c(Cl)cncc6Cl)noc5C5CC5)C4C3)cc12 (stereo not drawn) [Example 113] | 154 | – |
| O=C(O)c1cc(O[C@H]2C[C@H](F)C2)c2cc(N3CC4C(/C=C/c5c(-c6c(Cl)cncc6Cl)noc5C5CC5)C4C3)ccc2n1 (stereo partly drawn) [Example 204] | 19 | – |
| COc1cc(C(=O)O)nc2ccc(N3CC(/C=C/c4c(-c5c(Cl)cncc5Cl)noc4C4CC4)C3)cc12 [Example 166] | 29 | – |
